Assay results taken from patent publication US10370387B2, “Tricyclic fused thiophene derivatives as JAK inhibitors” (Incyte Corporation, priority 2012, dated 2019).

Tested on: human JAK1
Assay: In vitro JAK kinase assay (HTRF, phosphorylation of biotinylated peptide), JAK1
Format: biochemical
Conditions: ratio of JAK2 IC50 to JAK1 IC50, 1 mM ATP
Protocol: (§1) Compounds herein were tested for inhibitory activity of JAK targets according to the following in vitro assay described in Park et al., Analytical Biochemistry 1999, 269, 94-104. The catalytic domains of human JAK1 (a.a. 837-1142), JAK2 (a.a. 828-1132) and JAK3 (a.a. 781-1124) were expressed using baculovirus in insect cells and purified. The catalytic activity of JAK1, JAK2 or JAK3 was assayed by measuring the phosphorylation of a biotinylated peptide. The phosphorylated peptide was detected by homogenous time resolved fluorescence (HTRF). IC50s of compounds were measured for each kinase in the 40 μL reactions that contain the enzyme, ATP and 500 nM peptide in 50 mM Tris (pH 7.8) buffer with 100 mM NaCl, 5 mM DTT, and 0.1 mg/mL (0.01%) BSA. For the 1 mM IC50 measurements, ATP concentration in the reactions was 1 mM. Reactions were carried out at room temperature for 1 hour and then stopped with 20 μL 45 mM EDTA, 300 nM SA-APC, 6 nM Eu-Py20 in assay buffer (Perkin Elmer, Boston, Mass.). Binding to the Europium labeled antibody took place for 40 minutes and HTRF signal was measured on a PHERA star plate reader (BMG, Cary, N.C.). The Example compounds were each tested in the Example A assay (see Table 1 for data for the compounds of the examples as tested by the assay of Example A at 1 mM ATP).

| Compound | JAK2/JAK1 |
| --- | --- |
| Cc1nn2cnc3ccsc3c2c1-c1ccc(CC#N)cc1 [Example 46, [4-(8-Methylpyrazolo[1,5-c]thieno[2,3-e]pyrimidin-9-yl)phenyl]acetonitrile] | >3 |
| CC(=O)NC(C)c1nc2cnc3ccsc3c2n1[C@H]1CC[C@H](CC#N)OC1 (stereo partly drawn) [Example 69, N-(1-{1-[(3S,6R)-6-(Cyanomethyl)tetrahydro-2H-pyran-3-yl]-1H-imidazo[4,5-d]thieno[3,2-b]pyridin-2-yl}ethyl) acetamide] | >10 |
| C[C@@H](O)c1nc2cnc3ccsc3c2n1[C@H]1CC[C@H](CNS(C)(=O)=O)OC1 [Example 75, N-[((2R,5S)-5-{2-[(1R)-1-Hydroxyethyl]-1H-imidazo[4,5-d]thieno[3,2-b]pyridin-1-yl}tetrahydro-2H-pyran-2-yl)methyl]methanesulfonamide] | >10 |
| CC(C)OC(=O)NC[C@H]1CC[C@H](n2c([C@@H](C)O)nc3cnc4ccsc4c32)CO1 [Example 76, Isopropyl [((2R,5S)-5-{2-[(1R)-1-hydroxyethyl]-1H-imidazo[4,5-d]thieno[3,2-b]pyridin-1-yl}tetrahydro-2H-pyran-2-yl)methyl]carbamate] | >10 |
| C[C@@H](O)c1nc2cnc3ccsc3c2n1[C@H]1CC[C@H](CNC(=O)N(C)C)CC1 [Example 81, N′-[(trans-4-{2-[(1R)-1-Hydroxyethyl]-1H-imidazo[4,5-d]thieno[3,2-b]pyridin-1-yl}cyclohexyl)methyl]-N,N-dimethylurea] | >10 |
| CCCOC(=O)NC[C@H]1CC[C@H](n2c([C@@H](C)O)nc3cnc4ccsc4c32)CC1 [Example 83, Propyl [(trans-4-{2-[(1R)-1-hydroxyethyl]-1H-imidazo[4,5-d]thieno[3,2-b]pyridin-1-yl}cyclohexyl)methyl]carbamate] | >10 |
| CC(C)OC(=O)NC[C@H]1CC[C@H](n2c([C@@H](C)O)nc3cnc4ccsc4c32)CC1 [Example 84, Isopropyl [(trans-4-{2-[(1R)-1-hydroxyethyl]-1H-imidazo[4,5-d]thieno[3,2-b]pyridin-1-yl}cyclohexyl)methyl]carbamate] | >10 |
| C[C@@H](O)c1nc2cnc3ccsc3c2n1[C@H]1CC[C@H](CNC(=O)OC2CCOC2)CC1 (stereo partly drawn) [Example 85, Tetrahydrofuran-3-yl [(trans-4-{2-[(1R)-1-hydroxyethyl]-1H-imidazo[4,5-d]thieno[3,2-b]pyridin-1-yl}cyclohexyl)methyl]carbamate] | >10 |
| ((1R,2R,4S)-2-Hydroxy-4-{2-[(1R)-1-hydroxyethyl]-1H-imidazo[4,5-d]thieno[3,2-b]pyridin-1-yl}cyclohexyl)acetonitrile and ((1S,2S,4R)-2-hydroxy-4-{2-[(1R)-1-hydroxyethyl]-1H-imidazo[4,5-d]thieno[3,2-b]pyridin-1-yl}cyclohexyl)acetonitrile [36 (first peak)] | >10 |
| ((1R,2R,4S)-2-Hydroxy-4-{2-[(1R)-1-hydroxyethyl]-1H-imidazo[4,5-d]thieno[3,2-b]pyridin-1-yl}cyclohexyl)acetonitrile and ((1S,2S,4R)-2-hydroxy-4-{2-[(1R)-1-hydroxyethyl]-1H-imidazo[4,5-d]thieno[3,2-b]pyridin-1-yl}cyclohexyl)acetonitrile [36 (second peak)] | >10 |
| ((1R,2S,4S)-2-Hydroxy-4-{2-[(1R)-1-hydroxyethyl]-1H-imidazo[4,5-d]thieno[3,2-b]pyridin-1-yl}cyclohexyl)acetonitrile trifluoacetate and ((1S,2R,4R)-2-hydroxy-4-{2-[(1R)-1-hydroxyethyl]-1H-imidazo[4,5-d]thieno[3,2-b]pyridin-1-yl}cyclohexyl)acetonitrile trifluoacetate [37 (first peak)] | >10 |
| ((1R,2S,4S)-2-Hydroxy-4-{2-[(1R)-1-hydroxyethyl]-1H-imidazo[4,5-d]thieno[3,2-b]pyridin-1-yl}cyclohexyl)acetonitrile trifluoacetate and ((1S,2R,4R)-2-hydroxy-4-{2-[(1R)-1-hydroxyethyl]-1H-imidazo[4,5-d]thieno[3,2-b]pyridin-1-yl}cyclohexyl)acetonitrile trifluoacetate [37 (second peak)] | >10 |
| [(1R,2S,4S)-4-(2-Ethyl-1H-imidazo[4,5-d]thieno[3,2-b]pyridin-1-yl)-2-hydroxycyclohexyl]acetonitrile and [(1S,2R,4R)-4-(2-ethyl-1H-imidazo[4,5-d]thieno[3,2-b]pyridin-1-yl)-2-hydroxycyclohexyl]acetonitrile [40 (first peak)] | >10 |
| [(1R,2S,4S)-4-(2-Methyl-1H-imidazo[4,5-d]thieno[3,2-b]pyridin-1-yl)-2-hydroxycyclohexyl]acetonitrile and [(1S,2R,4R)-4-(2-methyl-1H-imidazo[4,5-d]thieno[3,2-b]pyridin-1-yl)-2-hydroxycyclohexyl]acetonitrile [41 (first peak)] | >10 |

Other lines, results leading:

| JAK2/JAK1 | Compound |
| --- | --- |
| >10 | CNC(C)c1nc2cnc3ccsc3c2n1[C@H]1CC[C@H](CC#N)OC1 (stereo partly drawn) [Example 70, ((2R,5S)-5-{2-[1-(Methylamino)ethyl]-1H-imidazo[4,5-d]thieno[3,2-b]pyridin-1-yl}tetrahydro-2H-pyran-2-yl)acetonitrile] |
| >10 | CC(F)c1nc2cnc3ccsc3c2n1[C@H]1CC[C@H](CC#N)OC1 (stereo partly drawn) [Example 71, {(2R,5S)-5-[2-(1-Fluoroethyl)-1H-imidazo[4,5-d]thieno[3,2-b]pyridin-1-yl]tetrahydro-2H-pyran-2-yl}acetonitrile] |
| >10 | N#CCc1nc2cnc3ccsc3c2n1[C@H]1CC[C@H](CC#N)OC1 [Example 73, {(2R,5S)-5-[2-(Cyanomethyl)-1H-imidazo[4,5-d]thieno[3,2-b]pyridin-1-yl]tetrahydro-2H-pyran-2-yl}acetonitrile] |
| >10 | N#CCc1nc2cnc3ccsc3c2n1[C@H]1CC[C@@H](CC#N)OC1 [Example 74, {(2S,5S)-5-[2-(Cyanomethyl)-1H-imidazo[4,5-d]thieno[3,2-b]pyridin-1-yl]tetrahydro-2H-pyran-2-yl}acetonitrile] |
| >10 | CC(=O)NC[C@H]1CC[C@H](n2c([C@@H](C)O)nc3cnc4ccsc4c32)CC1 [Example 79, N-[(trans-4-{2-[(1R)-1-Hydroxyethyl]-1H-imidazo[4,5-d]thieno[3,2-b]pyridin-1-yl}cyclohexyl)methyl]acetamide] |
| >10 | C[C@@H](O)c1nc2cnc3ccsc3c2n1[C@H]1CC[C@H](CNS(C)(=O)=O)CC1 [Example 80, N-[(trans-4-{2-[(1R)-1-Hydroxyethyl]-1H-imidazo[4,5-d]thieno[3,2-b]pyridin-1-yl}cyclohexyl)methyl]methanesulfonamide] |
| >10 | CCOC(=O)NC[C@H]1CC[C@H](n2c([C@@H](C)O)nc3cnc4ccsc4c32)CC1 [Example 82, Ethyl [(trans-4-{2-[(1R)-1-hydroxyethyl]-1H-imidazo[4,5-d]thieno[3,2-b]pyridin-1-yl}cyclohexyl)methyl]carbamate] |
| >10 | COC(=O)NC[C@H]1CC[C@H](n2c(CC#N)nc3cnc4ccsc4c32)CC1 [Example 86, Methyl ({trans-4-[2-(cyanomethyl)-1H-imidazo[4,5-d]thieno[3,2-b]pyridin-1-yl]cyclohexyl}methyl)carbamate] |
| >10 | CCOC(=O)NC[C@H]1CC[C@H](n2c(CC#N)nc3cnc4ccsc4c32)CC1 [Example 87, Ethyl ({trans-4-[2-(cyanomethyl)-1H-imidazo[4,5-d]thieno[3,2-b]pyridin-1-yl]cyclohexyl}methyl)carbamate] |
| >10 | CC(C)OC(=O)NC[C@H]1CC[C@H](n2c(CC#N)nc3cnc4ccsc4c32)CC1 [Example 88, Isopropyl ({trans-4-[2-(cyanomethyl)-1H-imidazo[4,5-d]thieno[3,2-b]pyridin-1-yl]cyclohexyl}methyl)carbamate] |
| >10 | CCC(=O)NC[C@H]1CC[C@H](n2c(CC#N)nc3cnc4ccsc4c32)CC1 [Example 89, N-({trans-4-[2-(Cyanomethyl)-1H-imidazo[4,5-d]thieno[3,2-b]pyridin-1-yl]cyclohexyl}methyl)propanamide] |
| >10 | N#CCc1nc2cnc3ccsc3c2n1[C@H]1CC[C@H](CC#N)CC1 [Example 90, {1-[trans-4-(Cyanomethyl)cyclohexyl]-1H-imidazo[4,5-d]thieno[3,2-b]pyridin-2-yl}acetonitrile] |
| >10 | N#CC[C@H]1CC[C@H](n2c(CO)nc3cnc4ccsc4c32)CO1 [Example 91, {(2R,5S)-5-[2-(Hydroxymethyl)-1H-imidazo[4,5-d]thieno[3,2-b]pyridin-1-yl]tetrahydro-2H-pyran-2-yl}acetonitrile] |

Target: human JAK1 (Homo sapiens, UniProt P23458)
Assay: as above
Format: biochemical
Conditions: 1 mM ATP
Protocol: as §1

| Compound | IC50 [µM] |
| --- | --- |
| Cc1nn2cnc3ccsc3c2c1-c1ccc(CC#N)cc1 [Example 46, [4-(8-Methylpyrazolo[1,5-c]thieno[2,3-e]pyrimidin-9-yl)phenyl]acetonitrile] | ≤ 0.1 |

Target: human JAK2 (Homo sapiens (Human), UniProt O60674)
Sequence (O60674 828-1132): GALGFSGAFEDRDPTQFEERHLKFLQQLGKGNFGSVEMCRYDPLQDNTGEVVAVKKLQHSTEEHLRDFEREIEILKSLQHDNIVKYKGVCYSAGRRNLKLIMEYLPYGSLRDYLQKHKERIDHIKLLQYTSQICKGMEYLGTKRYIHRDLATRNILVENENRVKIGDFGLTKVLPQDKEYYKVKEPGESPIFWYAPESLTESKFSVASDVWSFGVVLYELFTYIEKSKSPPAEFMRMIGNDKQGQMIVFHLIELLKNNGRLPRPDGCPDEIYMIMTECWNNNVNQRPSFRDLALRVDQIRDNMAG
Assay: In vitro JAK kinase assay (HTRF, phosphorylation of biotinylated peptide), JAK2
Format: biochemical
Conditions: 1 mM ATP
Protocol: as §1

| Compound | IC50 [µM] |
| --- | --- |
| Cc1nn2cnc3ccsc3c2c1-c1ccc(CC#N)cc1 [Example 46, [4-(8-Methylpyrazolo[1,5-c]thieno[2,3-e]pyrimidin-9-yl)phenyl]acetonitrile] | ≤ 1 |
